Assay results from US20230313305A1, “METHODS AND USES OF INFLAMMATORY BOWEL DISEASE BIOMARKERS” (Washington University, priority 2017, published 2023).

Key:
[1] = test system: primary intestinal epithelial cells; assay: IL-17A added to primary cultured intestinal epithelial cells (microarray, qPCR); format: cell-based, mouse; conditions: 20 ng/ml IL-17A
Text: Despite the important role of IL-17 in autoimmunity and inflammatory bowel disease (IBD) its function in the mucosa in disease is still unclear. In IBD, IL-17 is produced in part by mucosal pro-inflammatory Th17 cells. […] To investigate this possibility, we treated primary cultured intestinal epithelial cells with IL-17 and conducted transcriptomic analysis. […] This process was inhibited by PAI-1. […] This study identifies a new pathway in UC where dysregulated PAI-1 leads to exacerbated inflammation and disease activity by blocking an IL-17-tPA-TGF-β axis.
From colon epithelial lines n=4; Stem cells; Stem cells (2 days); DM; Colonocytes; With and without 20 ng/ml IL-17A.
We sought a marker of intestinal inflammation in IBD that is downstream of multiple inflammatory pathways. We first performed RNA microarray analysis on primary mouse intestinal epithelial cells treated these cells with IL-17 (a known important inflammatory cytokine in IBD). We cross-referenced a list of 23 molecules with enhanced mRNA production in these cells grown multiple states to lists of molecules with enhanced expression in IBD colon biopsies. We identified that the Plat/Serpine1 pathway was enriched. […]

colon spheroids = assay: TGFβ on colon spheroids, serpine1/PAI-1 expression; format: cell-based; conditions: colon spheroids (FIG. 25)
Text: FIG. 25. TGFβ drives serpine1/PAI-1 expression in the colon spheroids (negative feedback loop)

In the case of “IL-17: inflammatory cytokine added to primary intestinal epithelial cells”, the “production of tissue plasminogen activator (tPA) by epithelial cells” value [1] is reported as “induced”.
TGFβ was tested, and the serpine1/PAI-1 expression (colon spheroids) was “drives”.
